Source: patent US6174855A, “Pharmaceutical compositions comprising thrombin inhibitors and their use in the control of wound healing processes” (AstraZeneca AB, priority 1996, dated 2001)
Several values for one entry are separate records, joined by “and”; a condition that tells them apart may be missing. Equal entries are not always repeated.

Assays:
[1] = tested on: fibrin-related adhesions between the stomach and the liver, the intestines and the omentum; experiment: Acetic acid injury to the serosal surface of the rat stomach: formation of adhesions; format: in vivo; conditions: for Adherences score: day 7
Experimental: The serosal surface of the stomach of an adult anaesthetised rat was exposed in an area of 7 mm diameter to 80% acetic acid over 60 seconds. After rinsing with buffered saline solution, an osmotic minipump (Alza 2001, volume about 220 μL; pumping rate about 1 μL/h; Alza Corp.; Palo Alto, Calif., USA; prefilled with a solution of the thrombin inhibitor melagatran, 2-100 μg/mL) was implanted into the peritoneal cavity, with the outlet of the pump kept open, and delivered its content into the abdominal cavity. The wounded area was covered by a chitosan membrane or, in an alternative experiment, a gel, having a diameter several millimeters larger than that of the injured area.
The serosal surface of the stomach of an adult, anaesthetised rat was exposed in an area of 7 mm diameter to 80% acetic acid over 60 seconds. After rinsing with buffered saline, the wounded area was covered by a chitosan membrane or, in an alternative experiment, a gel, having a diameter several millimeters larger than the injured area. An osmotic minipump (Alza 2001, volume about 220 μL; pumping rate about 1 μL/h; Alza Corp.; Palo Alto, Calif., USA; prefilled with a solution of the thrombin inhibitor melagatran, 2-100 μg/mL) was implanted subcutaneously, with the outlet of the pump kept open, delivering its content into the adjacent tissue. […]

[2] = tested on: adhesions between injured area and adjacent muscles, muscle fascia, vessels, nerves and skin; experiment: Surgical removal of thigh muscle fascia in rat: adhesions inspected after 10 days; format: in vivo; conditions: subcutaneous minipump 0.2×100μg/mL, versus untreated animals
Description: An incision was made in the thigh through the skin into the muscle tissue in an anaesthetised adult rat, and the muscle fascia was surgically removed in a defined area (about 10×15 mm). The wound was sutured, and eventually opened for inspection after 10 days. Numerous adhesions were recognized, and the presence of granulation tissue were noticed to connect and lock the injured area to adjacent muscles, muscle fascia, vessels and nerves as well as to the skin.
An incision was made in the thigh through the skin into the muscle tissue in an anaesthetised adult rat and the muscle fascia was surgically removed in a defined area (about 10×15 mm). The muscle fascia was covered by a chitosan membrane or, in an alternative experiment, a gel, to which was connected a tube from an osmotic minipump, which had been implanted subcutaneously (Alza 2001, total volume about 220 μL; pumping rate about 1 μL/h; Alza Corp.; Palo Alto, Calif., USA; prefilled with a solution of the thrombin inhibitor melagatran, 0.2×100μg/mL). The wound was then sutured, and eventually opened and inspected after 10 days.

[3] = Plasma concentration of inogatran during intraperitoneal minipump infusion; format: in vivo, rat; conditions: for Mean Plasma Conc.: two rats
[4] = as above; format: in vivo, rat
Description: (§1) The serosal surfaces of the stomachs of adult, anaesthetised rats were exposed in an area 7 mm diameter to 80% acetic acid over 60 seconds and then rinsed with buffered saline.

[5] = Bleeding observations during inogatran minipump infusion; format: in vivo, rat; conditions: day 7
Description: as §1

[6] = infusion rate 1*10 μL/h, 658 μg/h
[7] = infusion rate 2*10 μL/h, 1317 μg/h

## hirudin
[1]; intraperitoneal minipump for a week, wound covered by hyaluronan or chitosan membrane, up to 10 days
  fibrin network or strands of granulation tissue between the stomach and the liver, the intestines and the omentum: No fibrin network or strands of granulation tissue could be detected

## N=C(N)c1ccc(CNC(=O)[C@@H]2CCN2C(=O)[C@H](NCC(=O)O)C2CCCCC2)cc1 [melagatran, HOOC--CH2 --(R)Cgl-Aze-Pab-H]
[2]; tube connected to chitosan membrane or gel over the muscle fascia
  severity and dimensions of the adhesions formed between adjacent structures: strikingly reduced
[2]; tube connected to chitosan membrane or gel
  granulation tissue connecting and locking the injured area to adjacent structures: largely not connecting
[1]; 100 μL of 100-500 μg/mL solution dripped daily onto chitosan membrane or gel, after 2 to 5 days
  bridging tissue (adhesions) between the stomach and the liver, the intestines and the omentum: absolutely no bridging tissue
[1]; intraperitoneal minipump 2-100 μg/mL, outlet connected to chitosan membrane or gel, up to 10 days
  fibrin network or strands of granulation tissue between the stomach and the liver, the intestines and the omentum: No fibrin network or strands of granulation tissue could be detected
[1]; intraperitoneal minipump 2-100 μg/mL, outlet open into abdominal cavity, wound covered by chitosan membrane or gel, up to 10 days
  fibrin network or strands of granulation tissue between the stomach and the liver, the intestines and the omentum: No fibrin network, nor any strands of granulation tissue, could be detected
[1]; minipump in peritoneal cavity, 2-100 μg/mL, about 1 μL/h, no polysaccharide, up to 10 days
  adhesions between the stomach and the liver, the intestines and the omentum: only scattered, delicate adhesions
[1]; subcutaneous minipump 2-100 μg/mL, outlet open, wound covered by chitosan membrane or gel, up to 14 days
  fibrin network or strands of granulation tissue between the stomach and the liver, the intestines and the omentum: No fibrin network, nor any strands of granulation tissue, could be detected

## N=C(N)NCCCNC(=O)[C@@H]1CCCCN1C(=O)[C@@H](CC1CCCCC1)NCC(=O)O [inogatran, HOOC--CH2 --(R)Cha-Pic-Nag-H]
[3]; infusion rate 1*1 μL/h, 66 μg/h, day 7
  Mean Plasma Conc.: 180 nM
[3]; infusion rate 1*10 μL/h, 658 μg/h, day 7
  Mean Plasma Conc.: 1840 nM
[3]; infusion rate 2*1 μL/h, 132 μg/h (269 and 248 μg/kg/h), day 7
  Plasma Conc.: 240 nM and 370 nM
[3]; infusion rate 2*1 μL/h, 132 μg/h, day 7
  Mean Plasma Conc.: 310 nM
[3]; infusion rate 2*10 μL/h, 1317 μg/h (2761 μg/kg/h), day 1
  Plasma Conc.: 4440 nM
[3]; infusion rate 2*10 μL/h, 1317 μg/h (2761 μg/kg/h), day 2
  Plasma Conc.: 2820 nM
[3]; infusion rate 2*10 μL/h, 1317 μg/h (2761 μg/kg/h), day 7
  Plasma Conc.: 5560 nM
[4]; infusion rate 1*1 μL/h, 66 μg/h (124 and 142 μg/kg/h), day 1
  Plasma Conc.: 580 nM and 610 nM
[4]; infusion rate 1*1 μL/h, 66 μg/h (124 and 142 μg/kg/h), day 7
  Plasma Conc.: 170 nM and 190 nM
[4]; infusion rate 1*10 μL/h, 658 μg/h (1327 and 1351 μg/kg/h), day 7
  Plasma Conc.: 1880 nM and 1790 nM
[4]; infusion rate 2*1 μL/h, 132 μg/h (269 and 248 μg/kg/h), day 1
  Plasma Conc.: 470 nM and 460 nM
[4]; infusion rate 4*1 μL/h, 264 μg/h (588 and 558 μg/kg/h), day 1
  Plasma Conc.: 1270 nM and 810 nM
[4]; infusion rate 4*1 μL/h, 264 μg/h (588 and 558 μg/kg/h), day 2
  Plasma Conc.: 470 nM and 890 nM
[4]; infusion rate 4*1 μL/h, 264 μg/h (588 and 558 μg/kg/h), day 7
  Plasma Conc.: 570 nM and 870 nM
[4]; infusion rate 4*1 μL/h, 264 μg/h, two rats, day 7
  Mean Plasma Conc.: 720 nM
[5]; [6]
  bleeding observation: Minor Tendency to Bleed
[5]; [7]
  bleeding observation: Diffuse Bleeding
[1]; infusion rate 1*1 μL/h, 66 μg/h
  Adherences score: 3 and 4
[1]; [6]
  Adherences score: 0
[1]; infusion rate 2*1 μL/h, 132 μg/h
  Adherences score: 2
[1]; [7]
  Adherences score: 0
[1]; intraperitoneal minipump(s) 65.86 μg/μL, 1 to 20 μL/h, for a week
  formation of adhesions, dose dependence: prevented in a dose-response related manner

## streptokinase: fibrinolytic agent, purchased from Sigma Chemical Co
[1]; intraperitoneal minipump, outlet connected to surface of chitosan membrane (or gel), up to 10 days
  fibrin-platelet network or strands of granulation tissue between the stomach and the liver, the intestines and the omentum: No fibrin-platelet network nor any strands of granulation tissue could be detected
[1]; minipump in abdominal cavity, outlet free and open, wound covered by chitosan membrane or gel, up to 10 days
  fibrin network or strands of newly formed granulation tissue connecting the stomach with the liver, the intestines and the omentum: No fibrin network, nor any strands of newly formed granulation tissue, could be detected
